Measured values from US12162856B2, “β-catenin and B-cell lymphoma 9 (BCL9) inhibitors” (H. LEE MOFFITT CANCER CENTER AND RESEARCH INSTITUTE, INC., priority 2019, dated 2024).
Where a name gives a salt, the structure may show the parent alone. Read-outs that look alike come from different tables or passages of the source.

Target: T1, β-catenin/BCL9 PPI (Homo sapiens, UniProt P35222)
T1 construct: Wild-type full-length β-catenin were cloned into a pET-28b vector; made in house; host or cells: Escherichia coli BL21 DE3 (β-catenin); BCL9 peptide chemically synthesized
T1 sequence (P35222 1-781): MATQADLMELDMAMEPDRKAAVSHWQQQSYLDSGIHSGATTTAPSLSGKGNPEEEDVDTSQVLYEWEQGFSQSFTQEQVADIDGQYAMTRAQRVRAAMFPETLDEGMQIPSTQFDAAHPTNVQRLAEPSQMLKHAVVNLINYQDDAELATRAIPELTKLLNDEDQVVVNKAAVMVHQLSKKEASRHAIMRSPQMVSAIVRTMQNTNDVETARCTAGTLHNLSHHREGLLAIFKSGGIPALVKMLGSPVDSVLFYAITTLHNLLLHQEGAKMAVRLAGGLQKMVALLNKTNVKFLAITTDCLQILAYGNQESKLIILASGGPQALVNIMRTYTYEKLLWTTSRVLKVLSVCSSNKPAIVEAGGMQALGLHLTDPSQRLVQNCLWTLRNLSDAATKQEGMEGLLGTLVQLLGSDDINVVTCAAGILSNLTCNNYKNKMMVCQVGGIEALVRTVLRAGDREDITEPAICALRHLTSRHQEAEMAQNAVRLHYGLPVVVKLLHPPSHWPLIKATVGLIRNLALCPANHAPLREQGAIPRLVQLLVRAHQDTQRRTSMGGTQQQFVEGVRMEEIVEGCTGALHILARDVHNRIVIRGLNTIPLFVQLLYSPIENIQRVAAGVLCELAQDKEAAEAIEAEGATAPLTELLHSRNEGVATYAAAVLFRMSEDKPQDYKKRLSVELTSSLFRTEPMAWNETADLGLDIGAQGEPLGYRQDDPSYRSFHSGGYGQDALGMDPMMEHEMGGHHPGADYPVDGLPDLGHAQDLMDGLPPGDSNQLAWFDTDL
Test: AlphaScreen competitive inhibition assay of the β-catenin/BCL9 PPI
Assay type: binding
Conditions: mean ± SD, triplicate, Ki derived from IC50 (Nikolovska-Coleska equation)
Protocol: Protein expression and purification. Wild-type full-length β-catenin were cloned into a pET-28b vector carrying a C-terminal 6×histidine (Novagen), and transformed into Escherichia coli BL21 DE3 (Novagen). Cells were cultured in LB medium with 30 μg/mL kanamycin until the OD600 was approximately 0.8, and then protein expression was induced with 400 μM of IPTG at 20° C. overnight. Cells were lysed by sonication. The proteins were purified by Ni-NTA affinity chromatography (30210, Qiagen) and dialyzed against a buffer containing 20 mM of Tris (pH 8.5), 100 mM NaCl, 10% glycerol, and 3 mM DTT. The purity of β-eaten in was greater than 95% as determined by SDS-PAGE gel analysis. Native non-denaturing gel electrophoresis was performed to confirm the homogeneity of the purified proteins. Thermal-shift assay was performed on an iCycler iQ Real Time Detection System (Bio-Rad) to monitor protein stability and detect protein aggregation. Protein unfolding was evaluated through measuring the S15 fluorescence changes of fluorescent dye Sypro Orange when interacting with wild-type or mutant β-catenin proteins. A temperature increment of […] was applied. CD spectra were measured on a J-815 spectropolarimeter (Jasco). All spectra were recorded at room temperature, and the baseline control containing all of the substances except protein. Sample were prepared at a concentration around 1-5 μM in a buffer of 10 mM potassium phosphate and 100 mM potassium fluoride at pH 7.0 to ensure that the transmission of light through the sample was not restricted. All proteins were stable and no aggregation was observed under storage or assay conditions. Proteins were aliquoted and stored at −80° C.
BCL9 peptide synthesis and purification. Human BCL9 (residues 350-375), and […] biotinylated human BCL9 (residues 350-375) were synthesized. All synthesized peptides were purified by HPLC with purity >95%. The structures were validated by LC/MS. The sequences are as follows (Ahx, 6-aminohexanoic acid).
AlphaScreen competitive inhibition assays. For the competitive inhibition assays of the β-catenin/BCL9 PPI, the negative control (equivalent to 0% inhibition) refers to 5.0 nM of biotinylated BCL9, 40 nM of His6-tagged β-catenin, and 10 μg/mL of donor and acceptor beads in a final volume of 25 μL assay buffer, but no tested inhibitor present. The positive control (equivalent to 100% inhibition) refers to 5.0 nM of biotinylated BCL9 and […] of donor and acceptor beads in a final volume of 25 μL assay buffer.
For the β-catenin/BCL9 assay, 5 nM of biotinylated BCL9 and 40 nM of His6-tagged β-catenin were incubated in assay buffer at 4° C. for 30 min. Different concentrations of the tested inhibitor were added and incubated in 20 μL assay buffer at 4° C. for another 1 h. All of the above assay plates were covered and gently mixed on an orbital shaker. The donor and acceptor beads were then added to the plates to a final concentration of 10 μg/mL in 25 μL assay buffer. The mixture was incubated for 1 h at 4° C. before detection. The IC50 value was determined by nonlinear least-square analysis of GraphPad Prism 5.0. The Ki values were derived from the IC50 values using a method reported by Nikolovska-Coleska et al (Nikolovska-Coleska, Z.; Wang, R.; Fang, X.; Pan, H.; Tomita, Y.; Li, P.; Roller, P. P.; Krajewski, K.; Saito, N. G.; Stuckey, J. A.; Wang, S. Development and optimization of a binding assay for the XIAP BIR3 domain using fluorescence polarization. Anal. Biochem. 2004, 332, 261-273.). The assays were conducted under the conditions required by Nikolovska-Coleska et al.'s equation for determining the Ki values. All of the experiments were performed in triplicate. The results were expressed as mean±standard deviation.

[1] = experiment 1, read-out: Ki (μM ± SD) experiment 1
[2] = experiment 2, read-out: Ki (μM ± SD) experiment 2
[3] = experiment 3, read-out: Ki (μM ± SD) experiment 3
[4] = experiment 4, read-out: Ki (μM ± SD) experiment 4

Ki [1] | Ki [2] | Ki [3] | Ki [4] | SMILES
> 90 µM | > 90 µM | – | – | CN(C(=O)C(C)(C)CN)c1cc(F)cc(C(=O)N2CCN(C(=O)c3ccc(O[C@H]4CCNC4)c(C4CCCCC4)c3)CC2)c1 [Compound 9, (S)-3-amino-N-(3-(4-(3-cyclohexyl-4-(pyrrolidin-3-yloxy)benzoyl)piperazine-1-carbonyl)-5-fluorophenyl)-N,2,2-trimethylpropanamide ditrifluoroacetate]
157 ± 17 µM | 160 ± 22 µM | – | – | O=C(Nc1cc(F)cc(C(=O)N2CCN(C(=O)c3ccc(O[C@H]4CCNC4)c(C4CCCCC4)c3)CC2)c1)C1CCNCC1 [Compound 5, (S)—N-(3-(4-(3-cyclohexyl-4-(pyrrolidin-3-yloxy)benzoyl)piperazine-1-carbonyl)-5-fluorophenyl) piperidine-4-carboxamide ditrifluoroacetate]
170 ± 23 µM | 150 ± 18 µM | – | – | CC(C)(CN)C(=O)Nc1cc(F)cc(C(=O)N2CCN(C(=O)c3ccc(O[C@H]4CCNC4)c(C4CCC(C(F)(F)F)CC4)c3)CC2)c1 (stereo partly drawn) [Compound 11, (S)-3-amino-N-(3-fluoro-5-(4-(4-(pyrrolidin-3-yloxy)-3-(4-(trifluoromethyl)cyclohexyl)benzoyl)piperazine-1-carbonyl)phenyl)-2,2-dimethylpropanamide ditrifluoroacetate]
780 ± 59 µM | 310 ± 43 µM | – | – | CC(C)(CN)C(=O)Nc1cc(F)cc(C(=O)N2CCN(C(=O)c3ccc(O[C@H]4CCNC4)c(C4CCCCC4)c3)CC2)c1 [Compound 4, (S)-3-Amino-N-(3-(4-(3-cyclohexyl-4-(pyrrolidin-3-yloxy)benzoyl)piperazine-1-carbonyl)-5-fluorophenyl)-2,2-dimethylpropanamide ditrifluoroacetate]
– | – | 330 ± 34 µM | 100 ± 18 µM | CC(=O)Nc1cc(F)cc(C(=O)N2CCN(C(=O)c3ccc(O[C@H]4CCNC4)c(C4CCCCC4)c3)[C@@H](C)C2)c1 [Compound 13, N-(3-((S)-4-(3-Cyclohexyl-4-(((S)-pyrrolidin-3-yl)oxy)benzoyl)-3-methylpiperazine-1-carbonyl)-5-fluorophenyl) acetamide trifluoroacetate]
310 ± 48 µM | 310 ± 23 µM | – | – | NCCCC(=O)Nc1cc(F)cc(C(=O)N2CCN(C(=O)c3ccc(O[C@H]4CCNC4)c(C4CCCCC4)c3)CC2)c1 [Compound 1, (S)-4-Amino-N-(3-(4-(3-cyclohexyl-4-(pyrrolidin-3-yloxy)benzoyl)piperazine-1-carbonyl)-5-fluorophenyl) butanamide ditrifluoroacetate]
– | – | 330 ± 43 µM | 200 ± 20 µM | CC(=O)Nc1cc(F)cc(C(=O)N2CCN(C(=O)c3ccc(O[C@H]4CCNC4)c(C4CCCCC4)c3)[C@@H](CC(C)C)C2)c1 [Compound 16, N-(3-((S)-4-(3-Cyclohexyl-4-(((S)-pyrrolidin-3-yl)oxy)benzoyl)-3-isobutylpiperazine-1-carbonyl)-5-fluorophenyl)acetamide trifluoroacetate]
230 ± 33 µM | 220 ± 26 µM | – | – | NCCCCC(=O)Nc1cc(F)cc(C(=O)N2CCN(C(=O)c3ccc(O[C@H]4CCNC4)c(C4CCCCC4)c3)CC2)c1 [Compound 2, (S)-5-Amino-N-(3-(4-(3-cyclohexyl-4-(pyrrolidin-3-yloxy)benzoyl)piperazine-1-carbonyl)-5-fluorophenyl) pentanamide ditrifluoroacetate]
32 ± 4 µM | 71 ± 8.7 µM | – | – | CN(C(=O)C(C)(C)N)c1cc(F)cc(C(=O)N2CCN(C(=O)c3ccc(O[C@H]4CCNC4)c(C4CCCCC4)c3)CC2)c1 [Compound 8, (S)-2-amino-N-(3-(4-(3-cyclohexyl-4-(pyrrolidin-3-yloxy)benzoyl)piperazine-1-carbonyl)-5-fluorophenyl)-N,2-dimethylpropanamide ditrifluoroacetate]
– | – | 61 ± 7.5 µM | 37 ± 3.6 µM | CC(=O)Nc1cc(F)cc(C(=O)N2CCN(C(=O)c3ccc(O[C@H]4CCNC4)c(C4CCCCC4)c3)CC2)c1 [Compound 12, (S)—N-(3-(4-(3-Cyclohexyl-4-(pyrrolidin-3-yloxy)benzoyl)piperazine-1-carbonyl)-5-fluorophenyl) acetamide trifluoroacetate]
